Results as given in ChEMBL document CHEMBL5108016, “Design, synthesis and neurite outgrowth activity of novel ganglioside GM1 derivatives by remodeling of the fatty acid moiety” (Eur J Med Chem, 2022).
Activity calls are given as the source filed them. No cut-off for these calls is given here.

Tests used:
[1] = Cytotoxicity against mouse Neuro2a cells assessed as inhibition of cell growth incubated for 24 hrs by MTT assay; format: toxicity, cell-based, N2a
N2a [2] = test: Induction of neurite outgrowth in mouse Neuro2a cells assessed as increase in GAP43 protein expression at 25 uM incubated for 24 hrs by immunoblotting analysis; format: functional, cell-based
Cortical neurone [3] = test: Induction of neurite outgrowth in C57BL/6 mouse Primary cortical neuron assessed as increase in total neurite length at 25 uM incubated for 24 hrs (reference value: 58.3 +/- 8.68 […]); format: functional
Cortical neurone [4] = test: Induction of neurite outgrowth in C57BL/6 mouse Primary cortical neuron assessed as change in neurite number per cell at 25 uM incubated for 24 hrs; format: functional, cell-based
N2a [5] = test: Upregulation of LSS gene expression in mouse Neuro2a cells by STRING analysis; format: functional, cell-based
N2a [6] = test: Upregulation of HMGCS1 gene expression in mouse Neuro2a cells by STRING analysis; format: functional, cell-based
N2a [7] = test: Upregulation of MVD gene expression in mouse Neuro2a cells by STRING analysis; format: functional, cell-based
N2a [8] = test: Upregulation of NSDHL gene expression in mouse Neuro2a cells by STRING analysis; format: functional, cell-based
N2a [9] = test: Upregulation of FDFT1 gene expression in mouse Neuro2a cells by STRING analysis; format: functional, cell-based
N2a [10] = test: Upregulation of ACAT2 gene expression in mouse Neuro2a cells by STRING analysis; format: functional, cell-based
N2a [11] = test: Upregulation of FDPS gene expression in mouse Neuro2a cells by STRING analysis; format: functional, cell-based
N2a [12] = test: Upregulation of CYP51 gene expression in mouse Neuro2a cells by STRING analysis; format: functional, cell-based
N2a [13] = test: Upregulation of SREBP2 gene expression in mouse Neuro2a cells by STRING analysis; format: functional, cell-based
N2a [14] = test: Upregulation of SREBP2 mRNA expression in mouse Neuro2a cells by qRT-PCR analysis; format: functional, cell-based
N2a [15] = test: Upregulation of FDF1 mRNA expression in mouse Neuro2a cells by qRT-PCR analysis; format: functional, cell-based
N2a [16] = test: Upregulation of DHCR7 mRNA expression in mouse Neuro2a cells by qRT-PCR analysis; format: functional, cell-based
N2a [17] = test: Upregulation of CYP51 mRNA expression in mouse Neuro2a cells by qRT-PCR analysis; format: functional, cell-based
N2a [18] = test: Upregulation of MVK mRNA expression in mouse Neuro2a cells by qRT-PCR analysis; format: functional, cell-based
N2a [19] = test: Upregulation of HMGCS mRNA expression in mouse Neuro2a cells by qRT-PCR analysis; format: functional, cell-based
N2a [20] = test: Upregulation of HMGCR mRNA expression in mouse Neuro2a cells by qRT-PCR analysis; format: functional, cell-based
N2a [21] = test: Upregulation of FDPS mRNA expression in mouse Neuro2a cells by qRT-PCR analysis; format: functional, cell-based
N2a [22] = test: Upregulation of NSDHL mRNA expression in mouse Neuro2a cells by qRT-PCR analysis; format: functional, cell-based
N2a [23] = test: Upregulation of MVD mRNA expression in mouse Neuro2a cells by qRT-PCR analysis; format: functional, cell-based
N2a [24] = test: Upregulation of LSS mRNA expression in mouse Neuro2a cells by qRT-PCR analysis; format: functional, cell-based
N2a [25] = test: Upregulation of ID11 mRNA expression in mouse Neuro2a cells by qRT-PCR analysis; format: functional, cell-based
N2a [26] = test: Upregulation of SQLE mRNA expression in mouse Neuro2a cells by qRT-PCR analysis; format: functional, cell-based
N2a [27] = test: Upregulation of PMVK mRNA expression in mouse Neuro2a cells by qRT-PCR analysis; format: functional, cell-based
N2a [28] = test: Upregulation of DHCR7 protein expression in mouse Neuro2a cells by parallel reaction monitoring analysis; format: functional, cell-based
N2a [29] = test: Upregulation of HMGCR protein expression in mouse Neuro2a cells by parallel reaction monitoring analysis; format: functional, cell-based
N2a [30] = test: Upregulation of NSDHL protein expression in mouse Neuro2a cells by parallel reaction monitoring analysis; format: functional, cell-based
N2a [31] = test: Upregulation of CYP51 protein expression in mouse Neuro2a cells by parallel reaction monitoring analysis; format: functional, cell-based
N2a [32] = test: Upregulation of FDPS protein expression in mouse Neuro2a cells by parallel reaction monitoring analysis; format: functional, cell-based
N2a [33] = test: Upregulation of LSS protein expression in mouse Neuro2a cells by parallel reaction monitoring analysis; format: functional, cell-based
N2a [34] = test: Upregulation of HMGCS1 protein expression in mouse Neuro2a cells by parallel reaction monitoring analysis; format: functional, cell-based
N2a [35] = test: Induction of cholesterol biosynthesis in mouse Neuro2a cells assessed as increase in total cholesterol level; format: functional, cell-based
N2a [36] = test: Induction of cholesterol biosynthesis in mouse Neuro2a cells assessed as increase in total cholesteryl level; format: functional, cell-based
[37] = target: T1, Sterol regulatory element-binding protein 2 (Mus musculus) (UniProt Q3U1N2); test: Activation of SREBP2 in mouse Neuro2a cells assessed as increase in mTOR protein expression by immunoblot analysis; format: cell-based; conditions: filed as activator
T1 sequence (whole entry): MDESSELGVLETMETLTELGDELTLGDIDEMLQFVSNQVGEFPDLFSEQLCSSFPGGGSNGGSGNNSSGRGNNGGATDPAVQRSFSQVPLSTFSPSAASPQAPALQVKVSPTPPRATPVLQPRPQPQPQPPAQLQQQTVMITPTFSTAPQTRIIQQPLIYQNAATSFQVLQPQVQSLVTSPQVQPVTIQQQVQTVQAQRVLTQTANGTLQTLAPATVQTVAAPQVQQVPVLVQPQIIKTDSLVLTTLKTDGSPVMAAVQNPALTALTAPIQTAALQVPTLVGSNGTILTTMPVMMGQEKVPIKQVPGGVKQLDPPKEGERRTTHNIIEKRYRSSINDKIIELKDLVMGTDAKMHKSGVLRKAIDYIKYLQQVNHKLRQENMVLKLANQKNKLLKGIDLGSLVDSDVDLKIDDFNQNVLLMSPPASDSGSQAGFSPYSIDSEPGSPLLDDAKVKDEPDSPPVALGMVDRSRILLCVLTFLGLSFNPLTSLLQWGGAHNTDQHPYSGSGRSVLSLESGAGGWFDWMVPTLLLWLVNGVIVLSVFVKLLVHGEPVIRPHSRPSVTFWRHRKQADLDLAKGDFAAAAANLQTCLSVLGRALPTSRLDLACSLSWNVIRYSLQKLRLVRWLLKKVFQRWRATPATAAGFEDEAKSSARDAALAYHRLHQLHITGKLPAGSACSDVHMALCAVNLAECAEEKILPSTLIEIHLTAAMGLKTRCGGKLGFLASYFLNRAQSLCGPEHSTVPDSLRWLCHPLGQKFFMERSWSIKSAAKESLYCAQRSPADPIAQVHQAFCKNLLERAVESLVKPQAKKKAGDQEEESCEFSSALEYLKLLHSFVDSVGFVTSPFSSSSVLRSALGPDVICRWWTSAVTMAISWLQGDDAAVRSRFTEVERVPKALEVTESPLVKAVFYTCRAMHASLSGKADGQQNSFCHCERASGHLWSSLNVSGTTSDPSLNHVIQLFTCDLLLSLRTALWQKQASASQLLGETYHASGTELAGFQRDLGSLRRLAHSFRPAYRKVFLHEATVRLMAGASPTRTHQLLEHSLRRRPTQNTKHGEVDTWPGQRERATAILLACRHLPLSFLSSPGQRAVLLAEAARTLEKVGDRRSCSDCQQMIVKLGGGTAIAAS

[38] = target: T1, Sterol regulatory element-binding protein 2 (Mus musculus); test: Activation of SREBP2 in mouse Neuro2a cells assessed as increase in ERBB4 protein expression by immunoblot analysis; format: cell-based; conditions: filed as activator
[39] = target: T1, Sterol regulatory element-binding protein 2 (Mus musculus); test: Activation of SREBP2 in mouse Neuro2a cells assessed as increase in phosphorylated ERBB4 protein expression by immunoblot analysis; format: cell-based; conditions: filed as activator
N2a [40] = test: Internalization of ERBB4 in mouse Neuro2a cells assessed as retention of ERBB4 level in lipids raft of cells by immunoblot analysis; format: functional, cell-based
N2a [41] = test: Upregulation of phosphorylated TrkA expression in mouse Neuro2a cells by immunoblot analysis; format: functional, cell-based
N2a [42] = test: Induction of neurite outgrowth in mouse Neuro2a cells assessed as increase in percentage of neurite-bearing cells at 25 uM incubated for 24 hrs; format: functional, cell-based
N2a [43] = test: Induction of neurite outgrowth in mouse Neuro2a cells assessed as increase in neurite-number per cells at 25 uM incubated for 24 hrs; format: functional, cell-based
N2a [44] = test: Induction of neurite outgrowth in mouse Neuro2a cells assessed as increase in neurite-length per cells at 25 uM incubated for 24 hrs; format: functional, cell-based

CCCCCC/C=C\CCCC(=O)N[C@@H](CO[C@@H]1O[C@H](CO)[C@@H](O[C@@H]2O[C@H](CO)[C@H](O[C@@H]3O[C@H](CO)[C@H](O)[C@H](O[C@@H]4O[C@H](CO)[C@H](O)[C@H](O)[C@H]4O)[C@H]3NC(C)=O)[C@H](O[C@]3(C(=O)O)C[C@H](O)[C@@H](NC(C)=O)[C@@H]([C@@H](O)[C@H](O)CO)O3)[C@H]2O)[C@H](O)[C@H]1O)[C@H](O)/C=C/CCCCCCCCCCCCC
IC50 at 24 h [1]: < 25 µM

CCCCCCCC/C=C/CCCCCCCC(=O)N[C@@H](CO[C@@H]1O[C@H](CO)[C@@H](O[C@@H]2O[C@H](CO)[C@H](O[C@@H]3O[C@H](CO)[C@H](O)[C@H](O[C@@H]4O[C@H](CO)[C@H](O)[C@H](O)[C@H]4O)[C@H]3NC(C)=O)[C@H](O[C@]3(C(=O)O)C[C@H](O)[C@@H](NC(C)=O)[C@@H]([C@@H](O)[C@H](O)CO)O3)[C@H]2O)[C@H](O)[C@H]1O)[C@H](O)/C=C/CCCCCCCCCCCCCCC
IC50 at 24 h [1]: > 200 µM | Activity (N2a [2]): Active

CCCCCCCCCCCCC/C=C/[C@@H](O)[C@H](CO[C@@H]1O[C@H](CO)[C@@H](O[C@@H]2O[C@H](CO)[C@H](O[C@@H]3O[C@H](CO)[C@H](O)[C@H](O[C@@H]4O[C@H](CO)[C@H](O)[C@H](O)[C@H]4O)[C@H]3NC(C)=O)[C@H](O[C@]3(C(=O)O)C[C@H](O)[C@@H](NC(C)=O)[C@@H]([C@@H](O)[C@H](O)CO)O3)[C@H]2O)[C@H](O)[C@H]1O)NC(=O)CCCCCCCCCCCCCCCCC
IC50 at 24 h [1]: > 200 µM | Activity (N2a [2]): Active | Activity (Cortical neurone [3]): 80.1 um | Activity (Cortical neurone [4]): Active | Activity (N2a [5]): Active | Activity (N2a [6]): Active | Activity (N2a [7]): Active | Activity (N2a [8]): Active | Activity (N2a [9]): Active | Activity (N2a [10]): Active | Activity (N2a [11]): Active | Activity (N2a [12]): Active | Activity (N2a [13]): Active | Activity (N2a [14]): Active | Activity (N2a [15]): Active | Activity (N2a [16]): Active | Activity (N2a [17]): Active | Activity (N2a [18]): Active | Activity (N2a [19]): Active | Activity (N2a [20]): Active | Activity (N2a [21]): Active | Activity (N2a [22]): Active | Activity (N2a [23]): Active | Activity (N2a [24]): Active | Activity (N2a [25]): Active | Activity (N2a [26]): Active | Activity (N2a [27]): Active | Activity (N2a [28]): Active | Activity (N2a [29]): Active | Activity (N2a [30]): Active | Activity (N2a [31]): Active | Activity (N2a [32]): Active | Activity (N2a [33]): Active | Activity (N2a [34]): Active | Activity (N2a [35]): Active | Activity (N2a [36]): Active | Activity [37]: Active | Activity [38]: Active | Activity [39]: Active | Activity (N2a [40]): Active | Activity (N2a [41]): Active

CCCCCC/C=C\CCCCCCCC(=O)N[C@@H](CO[C@@H]1O[C@H](CO)[C@@H](O[C@@H]2O[C@H](CO)[C@H](O[C@@H]3O[C@H](CO)[C@H](O)[C@H](O[C@@H]4O[C@H](CO)[C@H](O)[C@H](O)[C@H]4O)[C@H]3NC(C)=O)[C@H](O[C@]3(C(=O)O)C[C@H](O)[C@@H](NC(C)=O)[C@@H]([C@@H](O)[C@H](O)CO)O3)[C@H]2O)[C@H](O)[C@H]1O)[C@H](O)/C=C/CCCCCCCCCCCCC
Activity (N2a [42]): Active | Activity (N2a [43]): Active | Activity (N2a [44]): Active
